The text below walks through data of patent US20230375576A1, “METHODS FOR THE TREATMENT OF FAMILIAL HETEROZYGOUS AND HOMOZYGOUS HYPERCHOLESTEROLEMIA WITH CYCLODEXTRINS” (Beren Therapeutics P.B.C., priority 2021, published 2023).

The subject of experiment [1] is ABCA1. As to the kind of experiment: mRNA expression of ABCA1 in whole blood from HoFH patients. The experiment is classed as cell-based, human. The following applies: 1.2 mM HPBCD, 6 hours, normalized to saline control, FIG. 1B. The method, then:
This example aims to investigate the effects of HPBCD (2-hydroxypropyl-beta-cyclodextrin) on cholesterol efflux capacity in HoFH patients. HPBCD was added to whole blood obtained from HoFH patients at concentration of 1.2 mM. Untreated samples were used as control. The mixtures were incubated for 6 hours. Total mRNA was isolated and mRNA expression levels were measured. Data is shown as the level of gene expression normalized to saline control.

Experiment [2] concerns Ldlr−/− mice. Kind of experiment: Effect on liver weight in Ldlr−/− mouse model. The experiment is classed as in vivo. The conditions noted are these: Ldlr−/− mice on Western diet; 2 g/kg subcutaneously after five weeks; livers weighed up to 4 weeks post-HPBCD; versus untreated mice; FIG. 3. From the text: To evaluate the effect of HPBCD (2-hydroxypropyl-beta-cyclodextrin) on liver weight, experiments using Ldlr−/− mice were designed as described in FIGS. 2A and 2B. The mice were fed normal chow diet (NC) or high-fat (42%), high-cholesterol (1.2) diet Western diet (WD) as described in Table 1 and Table 2. After five weeks, the mice were subcutaneously injected with 2 g/kg […]. The livers were excised and weighed after five weeks (Group 1, 2, 6), six weeks (Group 3), seven weeks (Group 4), and nine weeks (Group 5), respectively. [table] [table]

Experiment [3] in a line: Cholesterol crystal dissolution capacity in plasma of HoFH patients (D6-labeled cholesterol in filtrate, GC-MS). The conditions noted are these: human plasma from HoFH patients; D6-labeled cholesterol crystals added; compared to control group; FIG. 1A. The protocol:
D6-labeled cholesterol crystals were added to human plasma collected from homozygous familial hypercholesterolemia (HoFH) patients treated with HPBCD (2-hydroxypropyl-beta-cyclodextrin). The reaction mixtures were filtered to remove crystals and the filtrate was assayed for the presence of D6-labeled cholesterol using gas chromatography-mass spectroscopy (GC-MS). Cholesterol measured in the filtrate indicated the ability of HPBCD (2-hydroxypropyl-beta-cyclodextrin) to dissolve cholesterol crystals.

SMILES strings stand for the structures. “Also recorded” adds a separate entry of the source.

`CC(O)COC[C@H]1O[C@@H]2O[C@H]3[C@H](O)[C@@H](O)[C@@H](O[C@H]4[C@H](O)[C@@H](O)[C@@H](O[C@H]5[C@H](O)[C@@H](O)[C@@H](O[C@H]6[C@H](O)[C@@H](O)[C@@H](O[C@H]7[C@H](O)[C@@H](O)[C@@H](O[C@H]8[C@H](O)[C@@H](O)[C@@H](O[C@H]1[C@H](O)[C@H]2O)O[C@@H]8COCC(C)O)O[C@@H]7COCC(C)O)O[C@@H]6COCC(C)O)O[C@@H]5COCC(C)O)O[C@@H]4COCC(C)O)O[C@@H]3COCC(C)O` (stereo partly drawn) [HPBCD, 2-hydroxypropyl-beta-cyclodextrin]: the “mRNA expression level of ABCA1” value in experiment [1] was “significant induction”. Moreover, the liver weight result in experiment [2] is “inhibits increase of liver weight; also recorded: did not show any further increase in liver weight”. Also, the cholesterol crystal dissolution result in experiment [3] is given as “significantly increased”.
